Data published in publication PMC6244841, “Enhanced Absorption and Growth Inhibition with Amino Acid Monoester Prodrugs of Floxuridine by Targeting hPEPT1 Transporters” (Molecules, 2008).
Marks after values point to notes of the source that are not given here.

What was measured:
[1] = Chemical stability (nonenzymatic hydrolysis) in pH 7.4 phosphate buffer; type: physicochemical; settings: 37°C, mean ± S.D.
Protocol: (§1) The experiments concerning prodrug stability were performed at 37°C in pH 7.4 phosphate buffers and Caco-2, AsPC-1, and MDCK cell homogenates.
Chemical Stability. The nonenzymatic hydrolysis of the prodrugs was determined as described above, except that each well contained pH 7.4 phosphate buffers (10 mmol/L) instead of cell homogenate.
(§2) The initial rates of hydrolysis were used to obtain the apparent first-order rate constants and to calculate the half-lives. The apparent first-order degradation rate constants of various floxuridine prodrugs at 37°C were determined by plotting the logarithm of prodrug remaining as a function of time. The slopes of these plots are related to the rate constant, k, and given by
(§3) k = 2.303 × slope (log C vs. time) (1)
(§4) The degradation half-lives were then calculated by the equation

[2] = Enzymatic stability in MDCK cell homogenates; type: in vitro ADME; settings: dog, pH 7.4, 37°C, protein 500 μg/mL, mean ± S.D., read-out: Half Life, Homogenates from MDCK cells
Protocol: as §1
(§5) Enzymatic Stability. Confluent Caco-2 cells, AsPC-1 cells, and MDCK cells were rinsed twice with saline. The cells were washed with pH 7.4 phosphate buffer (5 mL, 10 mmol/L), lysed by ultrasonication (Micro ultrasonic cell disrupter Model KT40, Kontes, Vineland, NJ, USA), and pelleted by centrifugation for 5 minutes at 1,000 x g. Protein amount was quantified with the Bio-Rad (Hercules, CA, USA) DC Protein Assay using bovine serum albumin as a standard. The amount of protein was adjusted to 500 μg/mL and hydrolysis reactions were carried out in 96-well plates (Corning). Caco-2, AsPC-1, and MDCK cell suspensions (250 µL) were placed in triplicate wells, the reactions were started with the addition of substrate, and cells were incubated at 37°C for 120 minutes. At the desired time point, sample aliquots (35 µL) were removed and added to acetonitrile (ACN, 150 µL) with 0.1% TFA. The mixtures were filtered with a 0.45 µm filters at 1,000 x g for 10 minutes at 4°C. The filtrate was then analyzed via reverse-phase HPLC.
as §2, §3, §4

MDCK cells = assay: Cell proliferation assay (XTT) in MDCK cells; type: cell-based; settings: Canis lupus familiaris, 2 hours exposure, 24 hours recovery, mean ± S.D.
Protocol: (§6) Cell proliferation studies were conducted with MDCK cells and MDCK cells that express hPEPT1 (MDCK/hPEPT1). The cells were seeded into 96-well plates at 125,000 cells per well and allowed to attach/grow for 24 hours before drug solutions were added. The culture medium (DMEM + 10% fetal bovine serum) was removed and the cells were gently washed once with sterile pH 6.0 uptake buffer. Floxuridine and floxuridine prodrugs were 2-fold serially diluted in pH 6.0 uptake buffer from 4 to 0.25 mmol/L. Buffer alone was used as 100% viability control. The wash buffer was removed and 30 µL drug solution per well was added and incubated at 37°C for 2 hours in the cell incubator. After this time, the drug solutions were removed and the cells were again gently washed twice with sterile uptake buffer. The culture medium was then added to each well after washing. The cells were allowed to recover for 24 hours before evaluating cell viability via 2,3-bis[2-methoxy-4-nitro-5-sulfophenyl]-2H-tetrazolium-5-carboxanilide inner salt (XTT) assays. A mixture (30 µL) containing XTT (1 mg/mL) in sterile DMEM without phenol red and phenazine methosulfate (N-methyldibenzopyrazine methyl sulfate in sterile PBS, 0.383 mg/mL) reagents were added to the cells and incubated at 37°C for 1 hour, after which the absorbance at 450 nm was read. The concentrations required to inhibit cell growth by 50% (GI50) were calculated using GraphPad Prism version 3.0 by nonlinear data fitting.

[3] = Enzymatic stability in Caco-2 cell homogenates; type: in vitro ADME; settings: for half-life: human, Caco-2, pH 7.4, 37°C, protein 500 μg/mL, mean ± S.D., read-out: Half Life, Homogenates from Caco-2 cells
Protocol: as §1, §5, §2, §3, §4

MDCK/hPEPT1 cells = assay: Cell proliferation assay (XTT) in MDCK/hPEPT1 cells; type: cell-based; settings: for GI50: Canis lupus familiaris, MDCK, read-out: GI50, MDCK/hPEPT1
Protocol: as §6

hPEPT1 [4] = target: T1, hPEPT1 (Homo sapiens, UniProt P46059); assay: [3H]Gly-Sar uptake inhibition in Caco-2 cells; type: cell-based; settings: for IC50: 10 µmol/L Gly-Sar, 30 minutes, mean ± S.D., read-out: IC50 Value, inhibition of Gly-Sar uptake, Caco-2 cell
T1 sequence (P46059 1-708): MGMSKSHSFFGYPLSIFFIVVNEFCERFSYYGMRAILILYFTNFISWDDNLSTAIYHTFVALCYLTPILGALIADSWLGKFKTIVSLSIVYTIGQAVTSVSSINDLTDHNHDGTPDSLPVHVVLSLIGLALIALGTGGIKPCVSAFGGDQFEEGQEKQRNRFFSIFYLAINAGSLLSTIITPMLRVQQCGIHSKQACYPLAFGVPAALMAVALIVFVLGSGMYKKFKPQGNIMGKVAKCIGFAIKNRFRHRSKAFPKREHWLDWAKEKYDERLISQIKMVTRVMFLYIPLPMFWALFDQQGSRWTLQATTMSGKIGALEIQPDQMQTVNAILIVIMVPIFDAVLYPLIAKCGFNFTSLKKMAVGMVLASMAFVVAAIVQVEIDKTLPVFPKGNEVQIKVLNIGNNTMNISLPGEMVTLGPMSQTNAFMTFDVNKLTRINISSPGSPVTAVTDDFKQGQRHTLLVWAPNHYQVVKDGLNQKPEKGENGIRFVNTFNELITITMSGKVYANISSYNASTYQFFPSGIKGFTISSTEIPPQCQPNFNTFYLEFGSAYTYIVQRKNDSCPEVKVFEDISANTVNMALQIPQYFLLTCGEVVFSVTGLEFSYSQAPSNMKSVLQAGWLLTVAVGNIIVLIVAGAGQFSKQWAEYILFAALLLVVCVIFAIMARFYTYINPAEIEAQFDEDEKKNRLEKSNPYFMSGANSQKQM
Protocol: (§7) Caco-2 cells at nine days post-seeding, and AsPC-1 cells at four days post-seeding were incubated with 10 µmol/L Gly-Sar (9.98 µmol/L Gly-Sar and 0.02 µmol/L [3H]Gly-Sar) along with various prodrug concentrations (5–0.05 mmol/L) for 30 minutes. The cells were washed three times with ice-cold PBS and solubilized with 10 mL of scintillation cocktail (ScintiVerse®, Fisher Scientific, St.Louis, MO, USA). The amount of cell-associated radioactivity was determined by scintillation counting (Beckman LS-9000, Beckman Instruments, Fullerton, CA, USA). The half maximal inhibitory concentration (IC50) values were determined using nonlinear data fitting (GraphPad Prism version 3.0).

[5] = Enzymatic stability in AsPC-1 cell homogenates; type: in vitro ADME; settings: for half-life: human, AsPC-1 cell homogenate, pH 7.4, 37°C, protein 500 μg/mL, mean ± S.D., read-out: Half Life, Homogenates from AsPC-1 cells
Protocol: as §1, §5, §2, §3, §4

hPEPT1 [6] = target: T1, hPEPT1; assay: [3H]Gly-Sar uptake inhibition in AsPC-1 cells; type: cell-based; settings: for IC50: 10 µmol/L Gly-Sar, 30 minutes, mean ± S.D., read-out: IC50 Value, inhibition of Gly-Sar uptake, AsPC-1 cell
Protocol: as §7

[7] = Caco-2 permeability study (apical-to-basolateral); settings: relative to 5-FU
[8] = design: method as in PMID 16132363; settings: pH 7.4 phosphate buffer, 37°C, mean ± S.D.; ref [40]; cited from earlier work
[9] = relative to 5'-O-L-valyl-floxuridine

SMILES	half-life [1]	half-life [2]	GI50 (MDCK cells)	half-life [3]	GI50 (MDCK/hPEPT1 cells)	Enhancement Factor (ratio of GI50 in MDCK and MDCK/hPEPT1 cells) (MDCK/hPEPT1 cells)	IC50 (hPEPT1 [4])	half-life [5]	IC50 (hPEPT1 [6])	also measured
CC(C)C[C@H](N)C(=O)OC[C@H]1O[C@@H](n2cc(F)c(=O)[nH]c2=O)C[C@@H]1O [5'-O-L-leucyl-floxuridine]	77.3 ± 1.2 min	9.2 ± 1.1 min	23.5 ± 3 µM	4.8 ± 0.2 min	2.3 ± 1 µM	10.09	2000 ± 300 µM	2 ± 0.1 min	2600 ± 200 µM	Enhancement Factor (ratio of GI50 in MDCK and MDCK/hPEPT1 cells) (MDCK/hPEPT1 cells; listed as 5ʹ-O-L-leucyl-floxuridine): 10; fold more quickly hydrolyzed in AsPC-1 cell homogenates than in Caco-2 cell homogenates ([5]; AsPC-1 vs Caco-2 homogenates): 2.4 fold; fold more quickly hydrolyzed in AsPC-1 cell homogenates than in MDCK cell homogenates ([5]; AsPC-1 vs MDCK homogenates): 4.7 fold
O=c1[nH]c(=O)n([C@H]2C[C@H](O)[C@@H](CO)O2)cc1F [Floxuridine, 5-fluoro-2'-deoxyuridine]		68.9 ± 12.8 min		5.7 ± 0.3 min		1.00	7300 ± 1600 µM	6.4 ± 3.2 min	6300 ± 2300 µM	fold higher Caco-2 membrane permeability than 5-FU [7]: 12 fold
CC(C)[C@@H](N)C(=O)OC[C@H]1O[C@@H](n2cc(F)c(=O)[nH]c2=O)C[C@@H]1O [5'-O-D-valyl-floxuridine]	345 ± 10.2 min	312 ± 45.4 min	88.5 ± 2.6 µM	343 ± 120 min	71 ± 2.7 µM	1.25	2600 ± 100 µM	291 ± 48.9 min	4800 ± 1300 µM	improvement of cell growth inhibition in MDCK/hPEPT1 cells (MDCK/hPEPT1 cells; MDCK/hPEPT1 vs MDCK): 25%; fold less inhibition of the transporters than 5'-O-L-valyl-floxuridine, Caco-2 cells (hPEPT1 [4]; [9]): 2.5 fold; fold less inhibition of the transporters than 5'-O-L-valyl-floxuridine, AsPC-1 cells (hPEPT1 [6]; [9]): 1.6 fold
CC(C)[C@H](N)C(=O)OC[C@H]1O[C@@H](n2cc(F)c(=O)[nH]c2=O)C[C@@H]1O [5'-O-L-valyl-floxuridine]	304 ± 17.8 min	74.7 ± 5.3 min	127 ± 7.7 µM	9.4 ± 0.6 min	21.1 ± 4.2 µM	5.91	1000 ± 100 µM	18.7 ± 6.7 min	2900 ± 400 µM	fold shorter half-life in Caco-2 cell homogenates than in AsPC-1 cell homogenates ([3]; Caco-2 vs AsPC-1 cell homogenates): 2 fold; Enhancement Factor (ratio of GI50 in MDCK and MDCK/hPEPT1 cells) (MDCK/hPEPT1 cells; listed as 5ʹ-O-L-valyl-floxuridine): about 6
CC[C@H](C)[C@H](N)C(=O)OC[C@H]1O[C@@H](n2cc(F)c(=O)[nH]c2=O)C[C@@H]1O [5'-O-L-isoleucyl-floxuridine]		245 ± 18.3 min	186 ± 4.2 µM	192 ± 31.8 min	10.3 ± 2.9 µM	18.04	700 µM	198 ± 34.1 min	4100 ± 1800 µM	Enhancement Factor (ratio of GI50 in MDCK and MDCK/hPEPT1 cells) (MDCK/hPEPT1 cells; listed as 5ʹ-O-L-isoleucyl-floxuridine): 18; Half Life, Buffer pH 7.4 [8]: 323.5 ± 1.5^a min
NCC(=O)OC[C@H]1O[C@@H](n2cc(F)c(=O)[nH]c2=O)C[C@@H]1O [5'-O-L-glycyl-floxuridine]	85.5 ± 3.2 min	11.2 ± 2 min		24.1 ± 2 min			2300 ± 600 µM	27.6 ± 5.8 min	2700 ± 500 µM	
N[C@@H](Cc1ccccc1)C(=O)OC[C@H]1O[C@@H](n2cc(F)c(=O)[nH]c2=O)C[C@@H]1O [5'-O-L-phenylalanyl-floxuridine]	222 ± 56.7 min	6 ± 0.6 min	41.3 ± 3.9 µM	11.1 ± 9.9 min	4.7 ± 2.4 µM	8.80	2100 ± 100 µM	11.8 ± 1.7 min	2000 ± 100 µM	fold less stability in cell homogenates compared to pH 7.4 phosphate buffers ([3]; cell homogenates vs pH 7.4 phosphate buffers): 20 fold
